Data taken from patent US9067943B2, “[1,2,3]triazolo[4,5-D]pyrimidine derivatives” (priority 2011, dated 2015).

Tests used:
human CB1 receptors = target: T1, human CB1 receptors (Homo sapiens, UniProt P21554); experiment: cAMP assay; type: cell-based
T1 construct: expressed in transfected cells; host or cells: CHO cells
Protocol: (§1) CHO cells expressing human CB1 or CB2 receptors are seeded 17-24 hours prior to the experiment 50.000 cells per well in a black 96 well plate with flat clear bottom (Corning Costar #3904) in DMEM (Invitrogen No. 31331), 1×HT supplement, with 10% fetal calf serum and incubated at 5% CO2 and 37° C. in a humidified incubator. The growth medium was exchanged with Krebs Ringer Bicarbonate buffer with 1 mM IBMX and incubated at 30° C. for 30 min. Compounds were added to a final assay volume of 100 μl and incubated for 30 min at 30° C. Using the cAMP-Nano-TRF detection kit the assay (Roche Diagnostics) was stopped by the addition of 50 μl lysis reagent (Tris, NaCl, 1.5% Triton X100, 2.5% NP40, 10% NaN3) and 50 μl detection solutions (20 μM mAb Alexa700-cAMP 1:1, and 48 μM Ruthenium-2-AHA-cAMP) and shaken for 2 h at room temperature. The time-resolved energy transfer is measured by a TRF reader (Evotec Technologies GmbH), equipped with a ND:YAG laser as excitation source. The plate is measured twice with the excitation at 355 nm and at the emission with a delay of 100 ns and a gate of 100 ns, total exposure time 10 s at 730 (bandwidth 30 nm) or 645 nm (bandwidth 75 nm), respectively. The FRET signal is calculated as follows: FRET=T730-Alexa730-P(T645-B645) with P=Ru730-B730/Ru645-B645, where T730 is the test well measured at 730 nM, T645 is the test well measured at 645 nm, B730 and B645 are the buffer controls at 730 nm and 645 nm, respectively. cAMP content is determined from the function of a standard curve spanning from 10 μM to 0.1 nM cAMP.
(§2) EC50 values were determined using Activity Base analysis (ID Business Solution, Limited). The EC50 values for a wide range of cannabinoid agonists generated from this assay were in agreement with the values published in the scientific literature.

human CB2 receptors = target: T2, human CB2 receptors (Homo sapiens, UniProt P34972); experiment: cAMP assay; type: cell-based
T2 construct: expressed in transfected cells; host or cells: CHO cells
T2 sequence (P34972 whole entry): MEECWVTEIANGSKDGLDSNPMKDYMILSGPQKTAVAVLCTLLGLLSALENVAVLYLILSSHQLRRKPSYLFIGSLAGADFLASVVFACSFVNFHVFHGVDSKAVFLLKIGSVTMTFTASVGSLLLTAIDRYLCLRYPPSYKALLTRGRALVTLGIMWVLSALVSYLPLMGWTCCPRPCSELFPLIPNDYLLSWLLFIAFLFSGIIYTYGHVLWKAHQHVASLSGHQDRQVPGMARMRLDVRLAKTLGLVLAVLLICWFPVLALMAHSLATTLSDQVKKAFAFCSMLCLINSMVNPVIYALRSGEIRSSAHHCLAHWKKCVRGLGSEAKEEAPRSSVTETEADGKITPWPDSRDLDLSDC
Protocol: as §1, §2

T1 sequence (P21554 whole entry): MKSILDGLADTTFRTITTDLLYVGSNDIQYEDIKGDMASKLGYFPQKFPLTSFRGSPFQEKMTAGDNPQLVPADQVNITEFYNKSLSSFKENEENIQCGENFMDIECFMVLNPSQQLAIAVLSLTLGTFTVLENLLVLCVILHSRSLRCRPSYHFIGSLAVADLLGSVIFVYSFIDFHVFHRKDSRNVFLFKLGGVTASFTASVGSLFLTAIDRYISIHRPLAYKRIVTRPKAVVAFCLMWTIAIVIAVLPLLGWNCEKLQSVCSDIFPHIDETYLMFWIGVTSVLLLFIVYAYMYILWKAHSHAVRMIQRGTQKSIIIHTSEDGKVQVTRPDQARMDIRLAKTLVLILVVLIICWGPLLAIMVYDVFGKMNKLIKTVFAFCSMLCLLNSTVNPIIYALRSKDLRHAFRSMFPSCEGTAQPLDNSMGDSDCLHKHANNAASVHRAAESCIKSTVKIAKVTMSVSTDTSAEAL

With `CC(C)(C)c1nc(N2CCC(F)(F)C2)c2nn(CCc3ccccc3)nc2n1` [Example 26, 5-tert-Butyl-7-(3,3-difluoro-pyrrolidin-1-yl)-2-phenethyl-2H-[1,2,3]triazolo[4,5-d]pyrimidine] the EC50 (human CB1 receptors) was 386 nM and the EC50 (human CB2 receptors) was 1.3 nM.
Compound `CC(C)(C)c1nc(N2CCC(F)(F)C2)c2nn(CC(=O)c3ccccc3)nc2n1` [Example 27, 2-[5-tert-Butyl-7-(3,3-difluoro-pyrrolidin-1-yl)-[1,2,3]triazolo[4,5-d]pyrimidin-2-yl]-1-phenyl-ethanone] has an EC50 (human CB1 receptors) of over 10000 nM and an EC50 (human CB2 receptors) of 0.9 nM.
`C[C@H](c1ccccc1Cl)n1nc2nc(C(C)(C)C)nc(N3CCC(F)(F)C3)c2n1` [Example 28, 5-tert-Butyl-2-[(R)-1-(2-chloro-phenyl)-ethyl]-7-(3,3-difluoro-pyrrolidin-1-yl)-2H-[1,2,3]triazolo[4,5-d]pyrimidine] showed an EC50 (human CB1 receptors) of 134 nM and an EC50 (human CB2 receptors) of 0.2 nM.
Work on `C[C@@H](c1ccccc1Cl)n1nc2nc(C(C)(C)C)nc(N3CCC(F)(F)C3)c2n1` [Example 29, 5-tert-Butyl-2-[(S)-1-(2-chloro-phenyl)-ethyl]-7-(3,3-difluoro-pyrrolidin-1-yl)-2H-[1,2,3]triazolo[4,5-d]pyrimidine] yielded an EC50 (human CB1 receptors) of 98 nM and an EC50 (human CB2 receptors) of 0.8 nM.
Compound `CC(C)(C)c1nc(N2CCC(F)(F)C2)c2nn(Cc3c(Cl)ccc(F)c3Cl)nc2n1` [Example 33, 5-tert-Butyl-2-(2,6-dichloro-3-fluoro-benzyl)-7-(3,3-difluoro-pyrrolidin-1-yl)-2H-[1,2,3]triazolo[4,5-d]pyrimidine] has an EC50 (human CB1 receptors) of over 10000 nM and an EC50 (human CB2 receptors) of 1.2 nM.
`CC(C)(C)c1nc(N2CCC(F)(F)C2)c2nn(Cc3cccnc3Cl)nc2n1` [Example 34, 5-tert-Butyl-2-(2-chloro-pyridin-3-ylmethyl)-7-(3,3-difluoro-pyrrolidin-1-yl)-2H-[1,2,3]triazolo[4,5-d]pyrimidine] gave an EC50 (human CB1 receptors) of over 10000 nM and an EC50 (human CB2 receptors) of 0.5 nM.
Work on `CC(C)(C)c1nc(N2CCC(F)(F)C2)c2nn(Cc3cnccc3Cl)nc2n1` [Example 35, 5-tert-Butyl-2-(4-chloro-pyridin-3-ylmethyl)-7-(3,3-difluoro-pyrrolidin-1-yl)-2H-[1,2,3]triazolo[4,5-d]pyrimidine] yielded an EC50 (human CB1 receptors) of 642 nM and an EC50 (human CB2 receptors) of 0.5 nM.
In the case of `CC(C)(C)c1nc(N2CCC(F)(F)C2)c2nn(Cc3ncccc3Cl)nc2n1` [Example 36, 5-tert-Butyl-2-(3-chloro-pyridin-2-ylmethyl)-7-(3,3-difluoro-pyrrolidin-1-yl)-2H-[1,2,3]triazolo[4,5-d]pyrimidine], the EC50 (human CB1 receptors) is reported as 20.3 nM and the EC50 (human CB2 receptors) is reported as 0.2 nM.
Work on `CC(C)(C)c1nc(N2CCC(F)(F)C2)c2nn(Cc3cc(Cl)cnc3Cl)nc2n1` [Example 37, 5-tert-Butyl-2-(2,5-dichloro-pyridin-3-ylmethyl)-7-(3,3-difluoro-pyrrolidin-1-yl)-2H-[1,2,3]triazolo[4,5-d]pyrimidine] yielded an EC50 (human CB1 receptors) of over 10000 nM and an EC50 (human CB2 receptors) of 0.9 nM.
Work on `CC(C)(C)c1nc(N2CCC(F)(F)C2)c2nn(Cc3nc(Cl)ccc3Cl)nc2n1` [Example 38, 5-tert-Butyl-2-(3,6-dichloro-pyridin-2-ylmethyl)-7-(3,3-difluoro-pyrrolidin-1-yl)-2H-[1,2,3]triazolo[4,5-d]pyrimidine] yielded an EC50 (human CB1 receptors) of 98.6 nM and an EC50 (human CB2 receptors) of 1.1 nM.
With `Cc1nonc1Cn1nc2nc(C(C)(C)C)nc(N3CCC(F)(F)C3)c2n1` [Example 39, 5-tert-Butyl-7-(3,3-difluoro-pyrrolidin-1-yl)-2-(4-methyl-furazan-3-ylmethyl)-2H-[1,2,3]triazolo[4,5-d]pyrimidine] the EC50 (human CB1 receptors) was over 10000 nM and the EC50 (human CB2 receptors) was 0.2 nM.
`Cc1noc(Cn2nc3nc(C(C)(C)C)nc(N4CCC(F)(F)C4)c3n2)n1` [Example 40, 5-tert-Butyl-7-(3,3-difluoro-pyrrolidin-1-yl)-2-(3-methyl-[1,2,4]oxadiazol-5-ylmethyl)-2H-[1,2,3]triazolo[4,5-d]pyrimidine] gave an EC50 (human CB1 receptors) of over 10000 nM and an EC50 (human CB2 receptors) of 4.3 nM.
Work on `CC(C)(C)c1nc(N2CCC(F)(F)C2)c2nn(CCc3ccccc3Cl)nc2n1` [Example 41, 5-tert-Butyl-2-[2-(2-chloro-phenyl)-ethyl]-7-(3,3-difluoro-pyrrolidin-1-yl)-2H-[1,2,3]triazolo[4,5-d]pyrimidine] yielded an EC50 (human CB1 receptors) of 498 nM and an EC50 (human CB2 receptors) of 0.5 nM.
`CC(C)(C)c1nc(N2CCC(F)(F)C2)c2nn(CCc3cccc(Cl)c3)nc2n1` [Example 42, 5-tert-Butyl-2-[2-(3-chloro-phenyl)-ethyl]-7-(3,3-difluoro-pyrrolidin-1-yl)-2H-[1,2,3]triazolo[4,5-d]pyrimidine] showed an EC50 (human CB1 receptors) of over 10000 nM and an EC50 (human CB2 receptors) of 10.6 nM.
`CC(C)(C)c1nc(N2CCC(F)(F)C2)c2nn(CCc3ccc(Cl)cc3)nc2n1` [Example 43, 5-tert-Butyl-2-[2-(4-chloro-phenyl)-ethyl]-7-(3,3-difluoro-pyrrolidin-1-yl)-2H-[1,2,3]triazolo[4,5-d]pyrimidine] was tested, and the EC50 (human CB1 receptors) was over 10000 nM and the EC50 (human CB2 receptors) was 22 nM.
Work on `CC(C)(C)c1nc(N2CCC(F)(F)C2)c2nn(Cc3c(Cl)ccnc3Cl)nc2n1` [Example 44, 5-tert-Butyl-2-(2,4-dichloro-pyridin-3-ylmethyl)-7-(3,3-difluoro-pyrrolidin-1-yl)-2H-[1,2,3]triazolo[4,5-d]pyrimidine] yielded an EC50 (human CB1 receptors) of 454 nM and an EC50 (human CB2 receptors) of 0.2 nM.
`CC(C)(C)c1nc(N2CCC(F)(F)C2)c2nn([C@@H]3CCOC3)nc2n1` [Example 45, 5-tert-Butyl-7-(3,3-difluoro-pyrrolidin-1-yl)-2-(R)-tetrahydro-furan-3-yl-2H-[1,2,3]triazolo[4,5-d]pyrimidine] gave an EC50 (human CB1 receptors) of over 10000 nM and an EC50 (human CB2 receptors) of 7.6 nM.
`CC(C)(C)c1nc(N2CCC(F)(F)C2)c2nn([C@H]3CCOC3)nc2n1` [Example 46, 5-tert-Butyl-7-(3,3-difluoro-pyrrolidin-1-yl)-2-(S)-tetrahydro-furan-3-yl-2H-[1,2,3]triazolo[4,5-d]pyrimidine] was tested, and the EC50 (human CB1 receptors) was over 10000 nM and the EC50 (human CB2 receptors) was 2.8 nM.
Work on `CC(C)(C)c1nc(N2CCC(F)(F)C2)c2nn(CC(=O)c3ccccc3Cl)nc2n1` [Example 47, 2-[5-tert-Butyl-7-(3,3-difluoro-pyrrolidin-1-yl)-[1,2,3]triazolo[4,5-d]pyrimidin-2-yl]-1-(2-chloro-phenyl)-ethanone] yielded an EC50 (human CB1 receptors) of over 10000 nM and an EC50 (human CB2 receptors) of 0.6 nM.
`CC(C)(C)c1nc(N2CCC(F)(F)C2)c2nn(Cc3c(F)ccc(Cl)c3Cl)nc2n1` [Example 48, 5-tert-Butyl-2-(2,3-dichloro-6-fluoro-benzyl)-7-(3,3-difluoro-pyrrolidin-1-yl)-2H-[1,2,3]triazolo[4,5-d]pyrimidine] was tested, and the EC50 (human CB1 receptors) was over 10000 nM and the EC50 (human CB2 receptors) was 5.5 nM.
`CC(C)(C)c1nc(N2CCC(F)(F)C2)c2nn(Cc3ccccc3S(C)(=O)=O)nc2n1` [Example 49, 5-tert-Butyl-7-(3,3-difluoro-pyrrolidin-1-yl)-2-(2-methanesulfonyl-benzyl)-2H-[1,2,3]triazolo[4,5-d]pyrimidine] gave an EC50 (human CB1 receptors) of 150 nM and an EC50 (human CB2 receptors) of 0.4 nM.
`CC(C)(C)c1nc(N2CCC(F)(F)C2)c2nn(CCc3ccccn3)nc2n1` [Example 50, 5-tert-Butyl-7-(3,3-difluoro-pyrrolidin-1-yl)-2-(2-pyridin-2-yl-ethyl)-2H-[1,2,3]triazolo[4,5-d]pyrimidine] gave an EC50 (human CB1 receptors) of over 10000 nM and an EC50 (human CB2 receptors) of 1.5 nM.
For `CC1(Cn2nc3nc(C(C)(C)C)nc(N4CCC(F)(F)C4)c3n2)COC1` [Example 51, 5-tert-Butyl-7-(3,3-difluoro-pyrrolidin-1-yl)-2-(3-methyl-oxetan-3-ylmethyl)-2H-[1,2,3]triazolo[4,5-d]pyrimidine], the EC50 (human CB1 receptors) was over 10000 nM and the EC50 (human CB2 receptors) was 0.9 nM.
For `CC(C)(C)c1nc(N2CCC(F)(F)C2)c2nn(CC(=O)c3cccc(Cl)c3)nc2n1` [Example 52, 2-[5-tert-Butyl-7-(3,3-difluoro-pyrrolidin-1-yl)-[1,2,3]triazolo[4,5-d]pyrimidin-2-yl]-1-(3-chloro-phenyl)-ethanone], the EC50 (human CB1 receptors) was over 10000 nM and the EC50 (human CB2 receptors) was 13 nM.
Work on `CC(C)(C)c1nc(N2CCC(F)(F)C2)c2nn(CC(=O)c3ccc(Cl)cc3)nc2n1` [Example 53, 2-[5-tert-Butyl-7-(3,3-difluoro-pyrrolidin-1-yl)-[1,2,3]triazolo[4,5-d]pyrimidin-2-yl]-1-(4-chloro-phenyl)-ethanone] yielded an EC50 (human CB1 receptors) of over 10000 nM and an EC50 (human CB2 receptors) of 7.2 nM.
`CC(C)(C)c1nc(N2CCC(F)(F)C2)c2nn(CC(=O)c3cccnc3)nc2n1` [Example 54, 2-[5-tert-Butyl-7-(3,3-difluoro-pyrrolidin-1-yl)-[1,2,3]triazolo[4,5-d]pyrimidin-2-yl]-1-pyridin-3-yl-ethanone] showed an EC50 (human CB1 receptors) of over 10000 nM and an EC50 (human CB2 receptors) of 6.5 nM.
For `CC(C)(C)c1nc(N2CCC(F)(F)C2)c2nn(Cc3c(Cl)ccc(Cl)c3Cl)nc2n1` [Example 55, 5-tert-Butyl-7-(3,3-difluoro-pyrrolidin-1-yl)-2-(2,3,6-trichloro-benzyl)-2H-[1,2,3]triazolo[4,5-d]pyrimidine], the EC50 (human CB1 receptors) was over 10000 nM and the EC50 (human CB2 receptors) was 8.7 nM.
